{"source": "patent US20250017905A1", "about": "“COMPOSITION FOR INHIBITING HISTAMINE-N-METHYLTRANSFERASE” (SUNTORY HOLDINGS LIMITED, priority 2021, published 2025)", "molecular_target": "T1, recombinant human histamine-N-methyltransferase (HNMT) (Homo sapiens, UniProt P50135)", "T1 construct": "host or cells: Escherichia coli", "T1 sequence (P50135 whole entry)": "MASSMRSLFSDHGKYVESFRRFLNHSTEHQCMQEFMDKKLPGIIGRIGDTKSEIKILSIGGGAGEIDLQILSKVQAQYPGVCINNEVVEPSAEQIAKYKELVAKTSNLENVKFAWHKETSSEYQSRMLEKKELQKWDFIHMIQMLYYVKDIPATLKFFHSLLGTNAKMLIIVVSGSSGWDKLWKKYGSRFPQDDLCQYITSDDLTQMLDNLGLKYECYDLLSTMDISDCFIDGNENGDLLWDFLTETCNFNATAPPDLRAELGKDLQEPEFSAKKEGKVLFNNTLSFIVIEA", "test": "Evaluation of histamine-N-methyltransferase inhibitory activity (Eurofins Panlabs, [3H]N-methylhistamine formation)", "assay_type": "biochemical", "experimental": "The study was commissioned to Eurofins Panlabs. The study was performed using recombinant human histamine-N-methyltransferase (HNMT) expressed in Escherichia coli. First, HNMT (0.025 μg/mL) was incubated with L-ergothioneine (L-ergothioneine concentration: 10 μM, 30 μM, 100 μM, 300 μM, or 1000 μM) in a phosphate buffer (pH 7.8) at 37° C. for 15 minutes. Next, 20 μM histamine, 1.4 μM S-(5′-adenosyl)-L-methionine, and 0.014 μM S-adenosyl-L-[methyl-3H]methionine were added to initiate an enzymatic reaction. After incubating at 37° C. for 30 minutes, 2.5 M borate was added to terminate the reaction. Lastly, the enzyme inhibitory activity of L-ergothioneine was evaluated using the amount of [3H]N-methylhistamine formed in the reaction as an index.\nThe concentration (μM) on the horizontal axis is the L-ergothioneine concentration."}
{"smiles": "C[N+](C)(C)[C@@H](Cc1c[nH]c(=S)[nH]1)C(=O)[O-]", "note": "[L-ergothioneine]", "values": [{"measurement": "histamine-N-methyltransferase inhibition (FIG. 1), in words", "setting": "10 μM, 30 μM, 100 μM, 300 μM, or 1000 μM", "value": "concentration-dependent manner"}, {"measurement": "IC50", "setting": "HNMT 0.025 μg/mL, phosphate buffer pH 7.8, 37° C., 20 μM histamine, 10-1000 μM tested, read-out: L-ergothioneine concentration (IC50) that inhibits 50% of substrate binding of histamine-N-methyltransferase", "value": 46.2, "unit": "µM"}]}
